In brackets after ≈: the same amount, converted by molar mass.
Columns and labels:
[1] = tested on: Klebsiella pneumoniae 7; assay: In vitro antibacterial activity, two-fold agar-plate dilution method (MIC); assay type: cell-based; conditions: HI-agar, 10^8 viable cells per ml, 37° C., 20 hours
Experimental: (§1) In vitro antibacterial activity was determined by the two-fold agar-plate dilution method as described below. One loopful of an overnight culture of each test strain in Trypticase-soy broth (10^8 viable cells per ml) was streaked on heart infusion agar (HI-agar) containing graded concentrations of representative test compound, and the minimal inhibitory concentration (MIC) was expressed in terms of μg/ml after incubation at 37° C. for 20 hours.

[2] = tested on: Proteus mirabilis 18; assay: as above; assay type: cell-based; conditions: HI-agar, 10^8 viable cells per ml, 37° C., 20 hours
Experimental: as §1

[3] = Urinary excretion; assay type: in vivo; conditions: rat; rats; oral administration of 100 mg/kg; urine 0 to 6 and 6 to 24 hours; bioassay; read-out: Urinary recovery in 24 hours (%)
Experimental: Urine of rats was collected with a urine collector at 0 to 6, and 6 to 24 hours after oral administration of 100 mg/kg of the test antibiotic. The antibiotic levels in the urine samples were bioassayed with the standard solution prepared with M/15 phosphate buffer (pH 7.0) and the urinary recovery in 24 hours was calculated.

[4] = in vivo; conditions: rat, po, 100 mg/kg
Experimental: Rats anesthetized with pentobarbital were fixed in supine position, and a polyethylene cannula was inserted into the bile duct. Bile samples were collected at 0 to 3, 3 to 6, and 6 to 24 hours after oral administration of 100 mg/kg of the test antibiotic. The antibiotic levels in the bile samples were bioassayed with the standard solution prepared with M/15 phosphate buffer (pH 7.0) and the biliary recovery in 24 hours were calculated.

MIC [1]: 0.05 µg/mL (≈ 0.121 µM)
MIC [2]: 0.05 µg/mL (≈ 0.121 µM)
dose excreted at 24 h [3]: 43.5%
dose excreted at 24 h [4]: 7.9%
Compound: O=C(O)CO/N=C(\C(=O)NC1C(=O)N2C(C(=O)O)=CCSC12)c1cscn1 (stereo not drawn) [Compound .circle.A, 7-[2-Carboxymethoxyimino-2-(4-thiazolyl)acetamido]-3-cephem-4-carboxylic acid (syn isomer)]

— patent US4649136A, “Cephem compounds” (Fujisawa Pharmaceutical Co., Ltd., priority 1981, dated 1987)
